Reference: ChEMBL document CHEMBL1138734, “Modulation of binding strength in several classes of active site inhibitors of acetylcholinesterase studied by comparative binding energy analysis” (J Med Chem, 2004)

Assays:
Acetylcholinesterase [1] = biological target: T1, Acetylcholinesterase (Homo sapiens, UniProt P22303)
Description: Inhibitory activity against human erythrocyte acetylcholinesterase

Acetylcholinesterase [2] = biological target: T1, Acetylcholinesterase; remark: listed apart in the source
Description: In vitro inhibitory activity against human erythrocyte acetylcholinesterase

Acetylcholinesterase [3] = biological target: T2, Acetylcholinesterase (Bos taurus, UniProt P23795)
T2 sequence (P23795 whole entry): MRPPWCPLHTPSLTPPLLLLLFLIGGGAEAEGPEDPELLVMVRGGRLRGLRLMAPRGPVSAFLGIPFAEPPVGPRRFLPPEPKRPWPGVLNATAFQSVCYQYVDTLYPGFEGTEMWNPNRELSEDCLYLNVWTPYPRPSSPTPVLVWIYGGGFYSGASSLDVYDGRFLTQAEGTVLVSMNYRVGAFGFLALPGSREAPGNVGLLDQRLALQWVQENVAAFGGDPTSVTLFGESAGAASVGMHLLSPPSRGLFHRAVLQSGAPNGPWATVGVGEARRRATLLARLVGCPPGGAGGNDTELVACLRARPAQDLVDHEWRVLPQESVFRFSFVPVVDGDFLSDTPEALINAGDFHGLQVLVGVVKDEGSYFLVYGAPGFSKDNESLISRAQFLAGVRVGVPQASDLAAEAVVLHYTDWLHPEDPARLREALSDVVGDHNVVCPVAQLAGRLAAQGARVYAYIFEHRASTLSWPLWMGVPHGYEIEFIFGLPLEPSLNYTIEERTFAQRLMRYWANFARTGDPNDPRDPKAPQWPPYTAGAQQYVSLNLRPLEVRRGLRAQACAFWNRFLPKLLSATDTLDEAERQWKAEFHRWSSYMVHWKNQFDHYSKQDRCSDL
Description: In vitro inhibitory activity against bovine acetylcholinesterase

Acetylcholinesterase [4] = biological target: T1, Acetylcholinesterase; test: Inhibitory activity against of human erythrocyte acetylcholinesterase

T1 sequence (P22303 whole entry): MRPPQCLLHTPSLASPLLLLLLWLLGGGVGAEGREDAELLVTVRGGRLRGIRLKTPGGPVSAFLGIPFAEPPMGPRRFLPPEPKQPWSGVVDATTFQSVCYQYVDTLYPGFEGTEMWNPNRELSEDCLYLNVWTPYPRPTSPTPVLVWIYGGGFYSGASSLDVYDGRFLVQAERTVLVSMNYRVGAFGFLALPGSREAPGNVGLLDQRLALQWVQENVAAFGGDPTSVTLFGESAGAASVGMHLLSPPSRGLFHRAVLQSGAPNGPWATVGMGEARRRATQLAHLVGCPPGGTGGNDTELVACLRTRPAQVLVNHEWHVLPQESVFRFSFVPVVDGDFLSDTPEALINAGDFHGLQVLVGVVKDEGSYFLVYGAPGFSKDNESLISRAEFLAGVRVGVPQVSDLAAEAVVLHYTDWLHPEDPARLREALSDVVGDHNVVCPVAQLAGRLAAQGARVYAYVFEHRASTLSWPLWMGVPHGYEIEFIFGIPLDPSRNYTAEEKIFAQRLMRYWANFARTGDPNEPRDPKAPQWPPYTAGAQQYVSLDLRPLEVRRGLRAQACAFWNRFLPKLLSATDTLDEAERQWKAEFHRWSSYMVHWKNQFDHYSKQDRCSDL

| Structure (SMILES) | IC50 (Acetylcholinesterase [1]) [nM] | further results |
| --- | --- | --- |
| O=c1c2ccc(Cl)cc2nc2n1CCCCC2 | > 100000 |  |
| Nc1c2c(nc3ccc(Cl)cc13)OCCC2 | 10000 |  |
| Nc1c2c(nc3cnccc13)OCCC2 | 41700 |  |
| Nc1c2c(nc3ccc(O)cc13)CCCC2 |  | IC50 (Acetylcholinesterase [2]): 162 nM |
| C=C1c2ccc(Cl)cc2N=C2CCCCCN12 | 158 |  |
| Nc1c2c(nc3cccc(F)c13)CCCC2 | 79.4 |  |
| CCC1=CC2Cc3nc4cc(Cl)ccc4c(N)c3C(C1)C2 (stereo not given) | 0.324 | IC50 (Acetylcholinesterase [3]): 1.29 nM |
| Nc1c2c(nc3cccc(F)c13)C1CC(C2)C1 |  | IC50 (Acetylcholinesterase [2]): 28.8 nM |
| C=C1c2cc(Cl)ccc2N=C2CCCCCN12 | 501 |  |
| C=C1c2cccc(Cl)c2N=C2CCCCCN12 | 1510 |  |
| S=c1c2ccc(Cl)cc2nc2n1CCCCC2 | > 100000 |  |
| NC1=C2CCCCC2=NC2CCCCC12 (stereo not given) |  | IC50 (Acetylcholinesterase [4]): 363 nM |
| C=C1c2c(Cl)cccc2N=C2CCCCCN12 | 1700 |  |
| C=C1c2ccccc2N=C2CCCCCN12 | 3720 |  |
